# Measurements published in patent US8329913B2, “Carbazole derivative, solvate thereof, or pharmaceutically acceptable salt thereof” (Zeria Pharmaceutical Co., Ltd., priority 2004, dated 2012).
# Biological target: T1, human PPARγ (Homo sapiens, UniProt P37231)
# T1 construct: 1.6 kb of fragment of the prepared plasmid pGEMT-hPPARg2 including human PPARγ gene; expressed in transfected cells; host or cells: CV-1 cells, transient transfection with pCI-hPPARg2, pCI-hRXRa and the reporter pGL3-PPRE3-TK
# T1 sequence (P37231 1-505): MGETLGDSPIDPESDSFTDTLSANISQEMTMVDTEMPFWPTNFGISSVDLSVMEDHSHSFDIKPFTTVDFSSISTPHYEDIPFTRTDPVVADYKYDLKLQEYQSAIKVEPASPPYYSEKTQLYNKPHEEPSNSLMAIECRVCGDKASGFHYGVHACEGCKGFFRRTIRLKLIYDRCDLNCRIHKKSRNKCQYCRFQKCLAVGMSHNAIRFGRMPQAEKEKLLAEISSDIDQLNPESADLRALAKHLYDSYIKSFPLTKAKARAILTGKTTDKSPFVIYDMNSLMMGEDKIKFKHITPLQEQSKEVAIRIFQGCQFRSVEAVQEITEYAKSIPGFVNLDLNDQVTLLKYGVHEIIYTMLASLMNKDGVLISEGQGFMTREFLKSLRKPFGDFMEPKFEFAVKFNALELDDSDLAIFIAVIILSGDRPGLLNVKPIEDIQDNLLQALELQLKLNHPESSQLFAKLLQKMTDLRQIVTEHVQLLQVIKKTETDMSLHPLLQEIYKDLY
# T1 sequence (P19793 1-462 partner): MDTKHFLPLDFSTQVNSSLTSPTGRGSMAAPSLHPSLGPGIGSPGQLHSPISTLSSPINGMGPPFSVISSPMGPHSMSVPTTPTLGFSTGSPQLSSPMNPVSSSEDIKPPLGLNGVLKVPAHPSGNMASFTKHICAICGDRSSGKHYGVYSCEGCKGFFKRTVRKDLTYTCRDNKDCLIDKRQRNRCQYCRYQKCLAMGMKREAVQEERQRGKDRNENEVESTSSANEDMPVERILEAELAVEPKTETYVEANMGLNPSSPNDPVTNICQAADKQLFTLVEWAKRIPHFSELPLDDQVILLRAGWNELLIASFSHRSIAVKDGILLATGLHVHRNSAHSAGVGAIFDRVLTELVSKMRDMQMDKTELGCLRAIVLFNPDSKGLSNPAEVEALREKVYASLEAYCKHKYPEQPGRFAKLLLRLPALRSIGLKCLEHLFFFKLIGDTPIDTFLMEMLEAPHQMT
# Experiment: Human PPARγ antagonist assay (luciferase reporter in transfected CV-1 cells)
# Assay type: cell-based
# Conditions: CV-1 cells expressing human PPARγ and RXRα with reporter plasmid; pioglitazone 1 μM as stimulant; 24 hours; read-out: Human PPARγ antagonist activities, Inhibition IC50
# Protocol: CV-1 cells (96 well plate), where human PPARγ and RXRα has expressed in the transient transfection of reporter plasmid (see reference 5a) were washed once with PBS (100 μL/well), and then supplemented with 100 μL/well […], as well as pioglitazone (not limited to pioglitazone shown as an example, but may be any PPARγ agonist) at a final concentration of 1 μM as a stimulant were added, and incubated in a 5% CO2 incubator at 37° C. for 24 hours. After removing the medium, the CV-1 cells were washed once with PBS (100 μL/well), and supplemented with 60 μL/well of 1× Passive Lysis Buffer (manufactured by Promega Corporation). The CV-1 cells were incubated at room temperature for 30 minutes, stirred, and then by using Dual-Luciferase Reporter Assay System (manufactured by Promega Corporation), luciferase activities of firefly and renilla were measured using 1420 ARVO Multilabel Counter (manufactured by Wallac Oy). Also, the same experiments as that described above were respectively carried out for the cases where only the above-mentioned stimulants (100 nM, 1 μM, 10 μM) were used, where only the above-mentioned test compounds were used, or where neither was used (nonsupplemented), and luciferase activities of firefly and renilla were measured. Values corrected by dividing the firefly luciferase activities by the renilla luciferase activities were calculated as specific activities and used for evaluations.
# Human PPARγ2 antagonist activities of the test compounds were evaluated by using a percentage (inhibition) where the specific activity in case only […] was added is regarded as 0% and the specific activity in case the test compound and the stimulant were not added is regarded as 100%. Moreover, the concentration of the test compound indicating the inhibition rate of 50% was calculated as the IC50 value. Also, human PPARγ2 agonist activities of the test compounds were evaluated by using a percentage (activity) where the specific activity when nonsupplemented is regarded as 0% and the specific activity in case only 10 μM stimulant was added is regarded as 100%, from the specific activity in case only the test compound is used.
# CV-1 cells were cultured in DMEM medium (manufactured by Invitrogen Corporation) including 10% fetal bovine serum (manufactured by Dainippon Pharmaceutical Co., Ltd.) in 225T-Flask (manufactured by Corning Costar). The cells were detached by 0.5 g/L trypsin-0.2 g/L EDTA (ethylene diamine tetra-acetic acid) (manufactured by Invitrogen Corporation), and then suspended in the DMEM medium including 10% fetal bovine serum to a cell concentration of 2×10^5 cells/mL. Thereafter, the cells were seeded into 96 well plate at 2×10^4 cells/0.1 mL/well, incubated in the 5% CO2 incubator at 37° C. overnight, and then the plasmids prepared by the above-mentioned reference 1a, reference 3a, and reference 4a were transfected into cells by using a lipofectamine reagent (manufactured by Invitrogen Corporation) according to the attached manual.
# Namely, after CV-1 cells were cultured overnight, the cells were washed with PBS (100 μL/well). Thereafter the cells were incubated for 5 hours at 37° C./5% CO2 in the MEM medium (manufactured by Invitrogen Corporation) including 430 ng/mL of human PPARγ expression plasmid (pCI-hPPARg2) prepared by the reference 1a, 430 ng/mL of human RXRα expression plasmid (pCI-hRXRa) prepared by the reference 3a, and 140 ng/mL of the reporter plasmid (pGL3-PPRE3-TK) prepared by the reference 4a, 10 ng/mL of phRL-TK vector (manufactured by Promega Corporation) and 2 μL/mL of lipofectamine.
row,Compound,IC50 [nM]
1,"COc1cc(Cn2c3ccccc3c3c(OC(C(=O)O)C(C)C)cccc32)ccc1OCc1nc(-c2ccccc2)oc1C (racemic) [Example 10, (±)-2-{9-[3-methoxy-4-((5-methyl-2-phenyl-oxazole-4-yl)methoxy)-benzyl]-9H-carbazole-4-yloxy}-3-methyl-butyric acid]",400
2,"COc1cc(Cn2c3ccccc3c3c(O[C@@H](C)C(=O)O)cccc32)ccc1OCc1nc(-c2ccccc2)oc1C [Example 39, sodium (S)-2-{9-[3-methoxy-4-((5-methyl-2-phenyl-oxazole-4-yl)methoxy)-benzyl]-9H-carbazole-4-yloxy}propionate]",617
3,COc1cc(Cn2c3ccccc3c3c(OC(C(=O)O)c4ccccc4)cccc32)ccc1OCc1nc(-c2ccccc2)oc1C (racemic) [Example 36],596
4,"COc1cc(Cn2c3ccccc3c3c(OCCCC(=O)O)cccc32)ccc1OCc1nc(-c2ccccc2)oc1C [Example 12, 4-{9-[3-methoxy-4-((5-methyl-2-phenyl-oxazole-4-yl)methoxy)-benzyl]-9H-carbazole-4-yloxy}butyric acid]",725
5,"COc1cc(Cn2c3ccccc3c3c(OC(C(=O)O)c4ccccc4)cccc32)ccc1OCc1nc(-c2ccco2)oc1C (racemic) [Example 6, (±)-2-{9-[4-((2-(furan-2-yl)-5-methyl-oxazole-4-yl)methoxy)-3-methoxy-benzyl]-9H-carbazole-4-yloxy}-2-phenylacetic acid]",905
6,"CCCCC(Oc1cccc2c1c1ccccc1n2Cc1ccc(OCc2nc(-c3ccccc3)oc2C)c(OC)c1)C(=O)O (racemic) [Example 17, (±)-2-{9-[3-methoxy-4-((5-methyl-2-phenyl-oxazole-4-yl)methoxy)-benzyl]-9H-carbazole-4-yloxy}caproic acid]",320

# Further lines, results first:
row,IC50 [nM],Compound
1,484,"CC[C@@H](Oc1cccc2c1c1ccccc1n2Cc1ccc(OCc2nc(-c3ccccc3)oc2C)c(OC)c1)C(=O)O [Example 42, sodium (R)-2-{9-[3-methoxy-4-((5-methyl-2-phenyl-oxazole-4-yl)methoxy)-benzyl]-9H-carbazole-4-yloxy}butyrate]"
2,992,"COc1cc(Cn2c3ccccc3c3c(OCc4ccc(C(=O)O)cc4)cccc32)ccc1OCc1nc(-c2ccccc2)oc1C [Example 46, sodium 4-((9-(4-((5-methyl-2-phenyloxazole-4-yl)methoxy)-3-methoxybenzyl)-9H-carbazole-5-yloxy)methyl)benzoate]"
3,2190,"COc1cc(Cn2c3ccccc3c3c(OC(C(=O)O)c4ccccc4)cccc32)ccc1OCc1nc(-c2ccccc2)oc1C (single isomer, unassigned) [Example 51, sodium (−)-2-{9-[3-methoxy-4-((5-methyl-2-phenyl-oxazole-4-yl)methoxy)-benzyl]-9H-carbazole-4-yloxy}-2-phenylacetate]"
